The text below walks through data of patent US8568755B2 (priority 2007, dated 2013).

Values joined by “and” are separate entries in the source; they are usually repeats but may differ in a detail not shown here. Equal entries are not always repeated. Where two headings read alike, the source gives them in different places.

The test system of assay [1] is Botrytis cinerea. Kind of assay: Test on antifungal activity against gray mold pathogen, mycelial growth on agar (Test Example 6). The assay is classed as cell-based. As for the experimental part: Mycelial growth of Botrytis cinerea preliminarily obtained by cultivation was punched out by a cork borer having a diameter of 4 mm and transplanted on a potato sucrose agar medium containing mixed chemical agents adjusted to prescribed concentrations. The system was left to stand at 25° C. for 3 days for cultivation, whereupon the diameter of mycelial growth was measured. The incidence to non-treated section was obtained in the same manner as the above Test Example 5, and the results are shown in Table 6-1 to 6-3.
Further, the theoretical value was calculated by a Colby's formula and shown in brackets ( ) in Tables 6-1 to 6-3. Since the incidence to non-treated section is lower than the theoretical value, the composition of the present invention can be said to have a synergistic effect.

Assay [2] relates to Septoria nodorum. Description: Test on preventive effect against wheat glum bloth (Test Example 3). Type of assay: in vivo. The protocol:
Wheat (cultivar: Norin-61-go) was cultivated in a plastic pot having a diameter of 7.5 cm, and when it reached 1.5-leaf stage, a mixed chemical solution having the respective sample compounds adjusted to prescribed concentrations, was applied by a spray gun in an amount of 10 ml per seedling. After the chemical solution dried, a suspension of conidia of Septoria nodorum was sprayed and inoculated and maintained at 20° C. for 7 days (for the first 3 days maintained under high humidity condition). Thereafter, the area of lesions was investigated, and the diseased area ratio to non-treated section was obtained by the following equation. Diseased area ratio to non-treated section=(a/b)×100
a: Average area of lesions in treated section
b: Average area of lesions in non-treated section
Further, the theoretical value was calculated by a Colby's formula and shown in brackets ( ) in Tables 3-1 to 3-14. Since the diseased area ratio to non-treated section (experimental value) is lower than the theoretical value, the composition of the present invention can be said to have a synergistic effect.

The subject of assay [3] is Erysiphe graminis. Kind of assay: Test on preventive effect against wheat powdery mildew (Test Example 1). The assay is classed as in vivo.
Assay [4] has as its system Botrytis cinerea. Description: Test on preventive effect against kidney bean gray mold (Test Example 4). Type of assay: in vivo. As for the experimental part:
Kidney bean (cultivar: Taisyou Kintoki) was cultivated in a plastic pot having a diameter of 12.0 cm, and when it reached 2.5-leaf stage, a mixed chemical solution having the respective test compounds adjusted to prescribed concentrations, was applied by a spray gun in an amount of 10 ml per seedling. After the chemical solution dried, the leaf was cut out, and a filter paper disk (8 mm in diameter) was placed on the leaf. Then, 120 μl of a suspension of spores of Botrytis cinerea (1.0×10^6 spores/ml) was dropped thereon and inoculated. The system was maintained under a humidity condition at 20° C. for three days, whereupon the area of lesions was investigated, and the diseased area ratio to non-treated section was obtained in the same manner as in Test Example 3. Further, the theoretical value was calculated by a Colby's formula and shown in brackets ( ) in Tables 4-1 to 4-19. Since the diseased area ratio to non-treated section (experimental value) is lower than the theoretical value, the composition of the present invention can be said to have a synergistic effect.

The subject of assay [5] is Sphaerotheca fuliginea. Type of assay: in vivo.
Assay [6] relates to Phyicularia oryzae. Type of assay: cell-based. To be noted: single use at 0.5 ppm.
In assay [7] the test system is Botrytis cinerea. Description: Test on antifungal activity against gray mold pathogen, intersecting filter papers (Test Examples 7 and 8). Type of assay: cell-based. To be noted: for distance from both ends of the filter paper to mycelial growth area of Botrytis cinerea (average): single use section, 30 ppm.

On to `Cc1cc(OC(C)C)ccc1C(=O)C(C)(C)NC(=O)c1sccc1C` [Compound No. 5, N-[[2′-methyl-4′-(2-propyloxy)-1,1-dimethyl]phenacyl]-3-methyl-2-thiophenecarboxamide], for which, in assay [1] (single use at 5 ppm), the “incidence to non-treated section (mycelial growth diameter)” value (“incidence to non-treated section” for short) was 32.3. Besides, the “diseased area ratio to non-treated section (experimental value)” value in assay [2] (single use at 12.5 ppm) is 30.0; in assay [2] (single use at 50 ppm), 20.0; in assay [4] (single use at 4 ppm) it was 74.0 and 83.5; in assay [4] (single use at 8 ppm), 74.7. In assay [3] (Compound (a) alone 250 ppm), the “diseased area ratio to non-treated section” value is listed as 0.6.

For the compound `Cc1ccsc1C(=O)NC(C)(C)C(=O)c1ccc(OC(C)C)cc1` [Compound No. 8, N-[[4′-(2-propyloxy)-1,1-dimethyl]phenacyl]-3-methyl-2-thiophenecarboxamide], the “diseased area ratio to non-treated section (experimental value)” value came to 35.0 in assay [2] (single use at 12.5 ppm), 20.0 in assay [2] (single use at 50 ppm), 35.0 in assay [5] (single use at 1 ppm) and 10.0 in assay [5] (single use at 2 ppm).

Take `CC1CCN(c2c(-c3c(F)cc(F)cc3F)c(Cl)nc3ncnn23)CC1` [Compound α, 5-chloro-7-(4-methylpiperidin-1-yl)-6-(2,4,6-trifluorophenyl)-[1,2,4]triazolo[1,5-a]pyrimidine, reference compound]: the “diseased area ratio to non-treated section (experimental value)” value was 43.0 in assay [4] (single use at 4 ppm) and 15.0 in assay [4] (single use at 8 ppm).

Turning to `COc1ccccc1N1CCSC1=C(C#N)Sc1cc(C(F)(F)F)ccc1F` [Compound γ, 2-(2-fluoro-5-(trifluoromethyl)phenylthio)-2-(3-(2-methoxyphenyl)thiazolidin-2-yliden)acetonitrile, reference compound], the “diseased area ratio to non-treated section (experimental value)” value in assay [4] (single use at 1 ppm) and in assay [4] (single use at 10 ppm) was 88.6 throughout.

Turning to `Cc1cc(OC(C)C)ccc1C(=O)C(C)(C)NC(=O)c1sccc1C` [No. 5], the “diseased area ratio to non-treated section” value in assay [5] (Compound No.x alone 8 ppm) was 2.5; in assay [3] (Compound No.x alone 16 ppm), 25.0; in assay [3] (Compound No.x alone 31 ppm), 17.5 and 12.5; in assay [3] (Compound No.x alone 63 ppm) it was 10.0; in assay [3] (Compound No.x alone 125 ppm), 2.5.

Turning to `Cc1ccsc1C(=O)NC(C)(C)C(=O)c1ccc(OC(C)C)cc1` [No. 8], the “diseased area ratio to non-treated section” value in assay [5] (Compound No.x alone 1 ppm) is 81.3; in assay [5] (Compound No.x alone 2 ppm), 45.0 and 75.0; in assay [3] (Compound No.x alone 63 ppm) it was 60.0; in assay [3] (Compound No.x alone 125 ppm), 55.0 and 30.0.

As to `CCCC(C)Oc1ccc(C(=O)C(C)(C)NC(=O)c2ncccc2C(F)(F)F)cc1` (centres unmarked) [No. 11], the “diseased area ratio to non-treated section” value in assay [5] (Compound No.x alone 8 ppm) is 4.0; in assay [3] (Compound No.x alone 63 ppm) it was 45.0 and 60.0; in assay [3] (Compound No.x alone 125 ppm) it was 35.0; in assay [3] (Compound No.x alone 250 ppm), 22.5 and 12.5.

`O=C1C2CC=CCC2C(=O)N1SC(Cl)(Cl)Cl` (centres unmarked) [captan]: the “incidence to non-treated section” value in assay [1] (single use at 1 ppm) is 94.4.

Turning to `O=C(Cc1ccccc1)N/C(=N\OCC1CC1)c1c(C(F)(F)F)ccc(F)c1F` [cyflufenamid], the figures for the “diseased area ratio to non-treated section (experimental value)” value in assay [4] (single use at 10 ppm) and in assay [4] (single use at 100 ppm) were 87.3 and 82.3, respectively.

For `C/C(=N/Nc1nc(C)cc(C)n1)c1ccccc1C` [ferimzone], the “incidence to non-treated section” value in assay [6] was 10.9.

Consider `O=[N+]([O-])c1cc(C(F)(F)F)c(Cl)c([N+](=O)[O-])c1Nc1ncc(C(F)(F)F)cc1Cl` [fluazinam, reference compound], for which the “diseased area ratio to non-treated section” value in assay [5] (partner fungicide alone 125 ppm) is 17.5; in assay [5] (partner fungicide alone 250 ppm) it was 4.0; in assay [5] (partner fungicide alone 500 ppm), 2.0. In assay [7], the “distance from both ends of the filter paper to mycelial growth area of Botrytis cinerea (average)” value is listed as 5 mm. The “controlling effect (contact of filter paper with mycelial growth area of Botrytis cinerea)” value in assay [7] (single use, filter paper immersed in 30 ppm solution, 20° C. for 4 days) was “a certain controlling effect”.

Consider `CC(C)Oc1cccc(NC(=O)c2ccccc2C(F)(F)F)c1` [flutolanil], for which the “diseased area ratio to non-treated section” value in assay [3] (fungicide (b) alone 500 ppm) was 7.5; in assay [3] (fungicide (b) alone 1000 ppm) it was 12.5.

For `CCO[PH](=O)O` [fosetyl-Al], the “diseased area ratio to non-treated section” value in assay [3] (fungicide (b) alone 500 ppm) and in assay [3] (fungicide (b) alone 1000 ppm) was 97.5 throughout.

Take `C[C@H]1O[C@H](O[C@H]2[C@H](O)[C@@H](O)[C@@H](O)[C@H](O)[C@@H]2O)[C@@H](N)C[C@@H]1NC(=N)C(=O)O` [kasugamycin]: the “diseased area ratio to non-treated section” value in assay [3] (fungicide (b) alone 50 ppm) is on record as 97.5; in assay [3] (fungicide (b) alone 500 ppm), 55.0.

In the case of `CO/N=C(/C(=O)OC)c1ccccc1COc1ccccc1C` [kresoxim-methyl], the “diseased area ratio to non-treated section” value came to 4.9 in assay [3] (fungicide (b) alone 12.5 ppm) and 1.8 in assay [3] (fungicide (b) alone 25 ppm).

As for `CC1(C)CCC(Cc2ccc(Cl)cc2)C1(O)Cn1cncn1` (centres unmarked) [metconazole], the figures for the “diseased area ratio to non-treated section” value in assay [3] (fungicide (b) alone 0.0075 ppm) and in assay [3] (fungicide (b) alone 0.03 ppm) were 95.0 and 55.0, respectively.

For `COc1cc(C)c(C(=O)c2c(OC)ccc(Br)c2C)c(OC)c1OC` [metrafenone, 3′-bromo-2,3,4,6′-tetramethoxy-2′,6-dimethylbenzophenone], the “diseased area ratio to non-treated section” value is reported as 100 in assay [3] (fungicide (b) alone 0.0075 ppm) and 35.0 in assay [3] (fungicide (b) alone 0.03 ppm).

`CCCCC(C#N)(Cn1cncn1)c1ccc(Cl)cc1` (centres unmarked) [myclobutanil]: the results for the “diseased area ratio to non-treated section (experimental value)” value in assay [2] (single use at 5 ppm) and in assay [2] (single use at 20 ppm) were 60.0 and 35.0, respectively.

With `CC1(C)COC(C)(CCCc2ccc(Cl)cc2)N1C(=O)n1ccnc1.CC1(C)COC(C)(CCCc2ccc(Cl)cc2)N1C(=O)n1ccnc1.O=C(O)/C=C/C(=O)O` (centres unmarked) [oxpoconazole fumarate], the “distance from both ends of the filter paper to mycelial growth area of Botrytis cinerea (average)” value in assay [7] is 7.5 mm.

Take `CCCN(CCOc1c(Cl)cc(Cl)cc1Cl)C(=O)n1ccnc1` [prochloraz]: the “diseased area ratio to non-treated section (experimental value)” value in assay [2] (single use at 5 ppm) was 40.0; in assay [2] (single use at 20 ppm), 15.0.

Consider `CCCOc1nc2ccc(I)cc2c(=O)n1CCC` [proquinazid], for which the “diseased area ratio to non-treated section (experimental value)” value in assay [4] (single use at 10 ppm) was 96.2; in assay [4] (single use at 100 ppm), 92.4.

As for `OC(Cc1ccccc1Cl)(Cn1nc[nH]c1=S)C1(Cl)CC1` (centres unmarked) [prothioconazole], the “diseased area ratio to non-treated section (experimental value)” value in assay [2] (single use at 10 ppm) worked out at 30.0.

Turning to `COC(=O)NCc1cc(/C(C)=N/OCc2cccc(C)n2)ccc1Cl` [pyribencarb], the “diseased area ratio to non-treated section (experimental value)” value in assay [4] (single use at 4 ppm) amounted to 70.0; in assay [4] (single use at 8 ppm) it was 65.0.

Consider `Fc1ccc(Oc2ccnc3cc(Cl)cc(Cl)c23)cc1` [quinoxyfen], for which the “diseased area ratio to non-treated section” value in assay [3] (fungicide (b) alone 0.06 ppm) turned out to be 80.0; in assay [3] (fungicide (b) alone 0.125 ppm) it was 77.5.

Turning to `CCCN(CC)CC1COC2(CCC(C(C)(C)C)CC2)O1` (centres unmarked) [spiroxamine], the entries for the “diseased area ratio to non-treated section” value in assay [3] (fungicide (b) alone 12.5 ppm), in assay [3] (fungicide (b) alone 25 ppm) and in assay [3] (fungicide (b) alone 50 ppm) were 97.0, 15.2 and 6.1, respectively.

In the case of `S1SSSSSSS1` [sulfur], the “diseased area ratio to non-treated section” value was 97.5 in assay [3] (fungicide (b) alone 50 ppm) and 40.0 in assay [3] (fungicide (b) alone 500 ppm).

Turning to `CC(C)(C)C(O)(CCc1ccc(Cl)cc1)Cn1cncn1` (centres unmarked) [tebuconazole], the results for the “diseased area ratio to non-treated section” value in assay [3] (fungicide (b) alone 0.5 ppm) and in assay [3] (fungicide (b) alone 1 ppm) were 10.0 and 5.0, respectively.

As for `FC(F)C(F)(F)OCC(Cn1cncn1)c1ccc(Cl)cc1Cl` (centres unmarked) [tetraconazole], the “diseased area ratio to non-treated section” value turned out to be 60.0 in assay [3] (fungicide (b) alone 0.125 ppm) and 52.5 in assay [3] (fungicide (b) alone 0.5 ppm).

As to `Cc1cccc2sc3nncn3c12` [tricyclazole], the “diseased area ratio to non-treated section” value in assay [3] (fungicide (b) alone 50 ppm) came out at 22.5; in assay [3] (fungicide (b) alone 500 ppm), 50.0.
